Test [1] has as its target T1, G protein-coupled receptor kinase 3 (Homo sapiens) (UniProt P35626).
T1 sequence (whole entry): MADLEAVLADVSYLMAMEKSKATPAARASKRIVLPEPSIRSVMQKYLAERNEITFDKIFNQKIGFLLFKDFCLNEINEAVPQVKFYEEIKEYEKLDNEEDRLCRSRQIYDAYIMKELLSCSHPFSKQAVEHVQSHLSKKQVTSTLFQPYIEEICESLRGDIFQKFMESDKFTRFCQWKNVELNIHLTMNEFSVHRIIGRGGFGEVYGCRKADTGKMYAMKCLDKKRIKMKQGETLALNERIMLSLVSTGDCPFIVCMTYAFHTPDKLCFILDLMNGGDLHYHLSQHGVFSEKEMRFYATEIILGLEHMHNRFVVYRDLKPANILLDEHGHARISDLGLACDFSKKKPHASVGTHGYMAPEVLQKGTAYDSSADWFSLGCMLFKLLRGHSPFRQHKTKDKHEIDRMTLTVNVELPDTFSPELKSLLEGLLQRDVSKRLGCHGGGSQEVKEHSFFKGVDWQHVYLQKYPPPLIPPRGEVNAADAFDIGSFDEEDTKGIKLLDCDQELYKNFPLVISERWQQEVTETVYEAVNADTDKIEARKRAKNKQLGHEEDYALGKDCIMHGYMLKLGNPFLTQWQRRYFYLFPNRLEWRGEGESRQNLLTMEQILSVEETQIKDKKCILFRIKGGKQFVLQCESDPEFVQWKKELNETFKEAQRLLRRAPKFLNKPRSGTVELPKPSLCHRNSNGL
As to the kind of experiment: Selectivity interaction (KinomeScan (DiscoverX)) EUB0000695a ADRBK2. Particulars: at 100 nM.

Test [2] addresses Proto-oncogene tyrosine-protein kinase Src (Homo sapiens, UniProt P12931). The note with it: at 10 µM.
The target of test [3] is RAC-alpha serine/threonine-protein kinase (Homo sapiens, UniProt P31749). As to the kind of experiment: Selectivity interaction (KinomeScan (DiscoverX)) EUB0001049a AKT1. Particulars: at 1 µM.
Chain of RAC-alpha serine/threonine-protein kinase (P31749 whole entry): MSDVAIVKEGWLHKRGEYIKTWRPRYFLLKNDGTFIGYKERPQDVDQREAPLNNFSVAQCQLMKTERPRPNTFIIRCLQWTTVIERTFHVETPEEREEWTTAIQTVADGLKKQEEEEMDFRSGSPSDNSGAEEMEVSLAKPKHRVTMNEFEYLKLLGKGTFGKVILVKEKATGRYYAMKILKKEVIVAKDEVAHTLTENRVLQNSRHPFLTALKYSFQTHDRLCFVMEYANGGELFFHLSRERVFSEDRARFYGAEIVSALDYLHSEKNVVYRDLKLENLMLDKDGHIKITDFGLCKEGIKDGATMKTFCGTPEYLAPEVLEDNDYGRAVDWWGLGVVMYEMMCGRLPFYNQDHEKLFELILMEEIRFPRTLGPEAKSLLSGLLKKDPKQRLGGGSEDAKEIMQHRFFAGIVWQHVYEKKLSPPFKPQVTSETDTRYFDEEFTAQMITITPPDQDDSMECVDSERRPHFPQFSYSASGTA
Test [4] deals with Death-associated protein kinase 1 (Homo sapiens, UniProt P53355). As to the kind of experiment: Selectivity interaction (KinomeScan (DiscoverX)) EUB0001049a DAPK1. The note with it: at 1 µM.
Chain of Death-associated protein kinase 1 (P53355 whole entry, looked up): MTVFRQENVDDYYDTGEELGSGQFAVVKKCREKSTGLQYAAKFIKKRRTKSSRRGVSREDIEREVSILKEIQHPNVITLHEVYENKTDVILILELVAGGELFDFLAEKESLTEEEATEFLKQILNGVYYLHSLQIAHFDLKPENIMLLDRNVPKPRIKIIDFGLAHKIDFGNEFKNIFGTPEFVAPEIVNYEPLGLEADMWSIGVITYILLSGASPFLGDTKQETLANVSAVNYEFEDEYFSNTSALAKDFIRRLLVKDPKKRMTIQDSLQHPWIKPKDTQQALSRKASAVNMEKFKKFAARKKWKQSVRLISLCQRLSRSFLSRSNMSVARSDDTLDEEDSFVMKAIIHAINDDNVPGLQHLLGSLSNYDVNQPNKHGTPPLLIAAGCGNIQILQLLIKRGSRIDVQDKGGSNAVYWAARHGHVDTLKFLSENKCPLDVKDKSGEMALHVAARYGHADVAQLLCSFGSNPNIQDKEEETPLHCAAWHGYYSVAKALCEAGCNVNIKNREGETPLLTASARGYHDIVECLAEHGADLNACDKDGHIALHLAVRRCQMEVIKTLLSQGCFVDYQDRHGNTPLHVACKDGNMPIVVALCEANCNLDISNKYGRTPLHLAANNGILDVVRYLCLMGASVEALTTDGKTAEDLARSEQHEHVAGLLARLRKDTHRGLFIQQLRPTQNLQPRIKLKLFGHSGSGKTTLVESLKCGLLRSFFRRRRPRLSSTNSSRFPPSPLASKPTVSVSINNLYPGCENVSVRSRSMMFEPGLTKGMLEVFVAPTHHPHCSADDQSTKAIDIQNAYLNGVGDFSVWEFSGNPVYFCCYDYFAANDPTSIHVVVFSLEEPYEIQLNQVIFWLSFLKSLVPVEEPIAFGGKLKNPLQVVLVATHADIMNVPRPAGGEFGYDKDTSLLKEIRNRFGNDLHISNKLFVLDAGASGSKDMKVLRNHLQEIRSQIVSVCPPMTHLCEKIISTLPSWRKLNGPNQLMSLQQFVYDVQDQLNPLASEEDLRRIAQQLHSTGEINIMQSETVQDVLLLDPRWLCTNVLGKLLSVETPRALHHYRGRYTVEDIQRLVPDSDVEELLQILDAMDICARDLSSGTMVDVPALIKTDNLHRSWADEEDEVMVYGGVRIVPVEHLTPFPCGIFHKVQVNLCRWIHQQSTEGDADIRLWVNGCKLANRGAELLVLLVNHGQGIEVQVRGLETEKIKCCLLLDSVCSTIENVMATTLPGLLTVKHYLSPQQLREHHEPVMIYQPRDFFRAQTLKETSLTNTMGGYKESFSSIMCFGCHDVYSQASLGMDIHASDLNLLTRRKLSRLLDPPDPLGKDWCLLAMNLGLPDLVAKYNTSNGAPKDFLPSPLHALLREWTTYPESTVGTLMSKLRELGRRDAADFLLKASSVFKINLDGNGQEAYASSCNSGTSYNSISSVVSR
For test [5], the target named is Transcription intermediary factor 1-alpha (Homo sapiens) (UniProt O15164). Description: Selectivity interaction (Bromodomain panel (DSF asssay)) EUB0000270b TRIM24.
Chain of Transcription intermediary factor 1-alpha (Homo sapiens) (O15164 whole entry): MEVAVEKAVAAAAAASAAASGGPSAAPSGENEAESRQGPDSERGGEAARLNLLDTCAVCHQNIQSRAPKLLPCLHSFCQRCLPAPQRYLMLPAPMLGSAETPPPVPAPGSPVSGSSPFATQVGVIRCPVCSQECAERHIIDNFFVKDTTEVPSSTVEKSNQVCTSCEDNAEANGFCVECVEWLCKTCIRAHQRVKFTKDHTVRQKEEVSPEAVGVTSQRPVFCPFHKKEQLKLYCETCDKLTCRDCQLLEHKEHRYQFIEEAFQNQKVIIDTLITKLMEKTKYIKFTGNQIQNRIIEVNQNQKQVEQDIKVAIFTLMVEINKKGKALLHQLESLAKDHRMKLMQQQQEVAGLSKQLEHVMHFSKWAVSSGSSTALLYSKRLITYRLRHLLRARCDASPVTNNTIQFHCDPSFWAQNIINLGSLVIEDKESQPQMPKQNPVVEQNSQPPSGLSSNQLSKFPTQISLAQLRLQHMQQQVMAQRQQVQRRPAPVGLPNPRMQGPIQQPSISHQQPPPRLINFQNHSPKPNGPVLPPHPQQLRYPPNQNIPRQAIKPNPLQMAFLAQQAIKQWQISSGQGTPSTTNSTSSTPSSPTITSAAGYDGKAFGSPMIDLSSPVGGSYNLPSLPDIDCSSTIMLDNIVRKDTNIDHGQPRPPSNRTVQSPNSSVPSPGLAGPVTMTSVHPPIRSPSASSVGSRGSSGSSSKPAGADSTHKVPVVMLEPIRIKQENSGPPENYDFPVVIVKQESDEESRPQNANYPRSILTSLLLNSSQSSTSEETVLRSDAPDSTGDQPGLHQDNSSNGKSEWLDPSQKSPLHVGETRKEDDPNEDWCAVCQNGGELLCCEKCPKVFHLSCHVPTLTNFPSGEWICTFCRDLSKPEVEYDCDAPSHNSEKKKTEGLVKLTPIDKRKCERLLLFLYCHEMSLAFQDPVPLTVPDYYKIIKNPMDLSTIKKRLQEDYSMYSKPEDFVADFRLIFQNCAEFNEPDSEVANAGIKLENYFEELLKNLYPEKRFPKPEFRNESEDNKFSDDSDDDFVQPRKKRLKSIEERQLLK
Test [6] deals with T2, Mitogen-activated protein kinase kinase kinase 13 (Homo sapiens) (UniProt O43283).
T2 sequence (whole entry): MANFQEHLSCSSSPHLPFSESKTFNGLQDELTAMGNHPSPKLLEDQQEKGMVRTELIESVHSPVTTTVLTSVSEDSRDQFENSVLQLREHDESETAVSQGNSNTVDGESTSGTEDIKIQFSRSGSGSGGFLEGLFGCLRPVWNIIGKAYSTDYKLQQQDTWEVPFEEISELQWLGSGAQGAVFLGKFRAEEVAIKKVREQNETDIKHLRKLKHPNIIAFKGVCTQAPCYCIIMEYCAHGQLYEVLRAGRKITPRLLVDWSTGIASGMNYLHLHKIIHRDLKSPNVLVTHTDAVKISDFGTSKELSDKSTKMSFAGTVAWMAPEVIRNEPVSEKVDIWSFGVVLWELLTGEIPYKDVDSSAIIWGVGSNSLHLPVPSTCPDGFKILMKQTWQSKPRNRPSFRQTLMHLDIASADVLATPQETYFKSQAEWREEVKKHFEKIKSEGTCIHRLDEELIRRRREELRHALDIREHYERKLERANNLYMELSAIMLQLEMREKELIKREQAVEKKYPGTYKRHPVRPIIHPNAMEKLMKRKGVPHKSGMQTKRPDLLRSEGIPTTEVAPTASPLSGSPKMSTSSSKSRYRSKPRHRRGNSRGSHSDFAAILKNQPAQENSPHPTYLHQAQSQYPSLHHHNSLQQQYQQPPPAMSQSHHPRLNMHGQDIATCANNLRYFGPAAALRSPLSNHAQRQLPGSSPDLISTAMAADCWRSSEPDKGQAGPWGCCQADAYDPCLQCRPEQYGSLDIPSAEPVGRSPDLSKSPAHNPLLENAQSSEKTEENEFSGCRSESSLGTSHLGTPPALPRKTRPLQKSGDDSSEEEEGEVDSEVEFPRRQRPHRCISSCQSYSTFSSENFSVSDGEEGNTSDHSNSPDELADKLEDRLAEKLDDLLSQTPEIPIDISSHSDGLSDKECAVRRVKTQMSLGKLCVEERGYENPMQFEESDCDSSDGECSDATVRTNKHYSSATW
Description: Selectivity interaction (KinomeScan (DiscoverX)) EUB0000092b MAP3K13. The note with it: at 10 µM.

The target of test [7] is Casein kinase II subunit alpha (Homo sapiens, UniProt P68400). Description: Selectivity interaction (Kinase panel (KiNativ target engagement assay in Jurkat cells)) EUB0001635a CSNK2A1. The note with it: Selectivity number of off-targets 0.0, Selectivity number of targets 233.0, Source Knowledge https://www.sciencedirect.com/science/article/pii/S2451945619300674?via%3Dihub, at 1 µM. In kind it is cell-based.
Chain of Casein kinase II subunit alpha (P68400 whole entry, looked up): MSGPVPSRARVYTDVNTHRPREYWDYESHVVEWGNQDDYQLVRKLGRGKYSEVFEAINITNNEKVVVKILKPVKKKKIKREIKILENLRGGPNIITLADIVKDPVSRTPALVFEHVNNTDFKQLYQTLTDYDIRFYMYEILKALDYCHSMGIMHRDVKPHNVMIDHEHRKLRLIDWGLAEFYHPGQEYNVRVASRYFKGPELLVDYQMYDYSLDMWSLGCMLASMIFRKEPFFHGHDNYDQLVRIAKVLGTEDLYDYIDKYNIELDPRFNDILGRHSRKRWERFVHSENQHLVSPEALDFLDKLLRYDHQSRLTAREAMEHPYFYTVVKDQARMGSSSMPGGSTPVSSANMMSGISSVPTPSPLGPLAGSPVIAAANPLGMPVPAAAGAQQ

The target of test [8] is T3, Serine/threonine-protein kinase greatwall (Homo sapiens) (UniProt Q96GX5).
T3 sequence (whole entry): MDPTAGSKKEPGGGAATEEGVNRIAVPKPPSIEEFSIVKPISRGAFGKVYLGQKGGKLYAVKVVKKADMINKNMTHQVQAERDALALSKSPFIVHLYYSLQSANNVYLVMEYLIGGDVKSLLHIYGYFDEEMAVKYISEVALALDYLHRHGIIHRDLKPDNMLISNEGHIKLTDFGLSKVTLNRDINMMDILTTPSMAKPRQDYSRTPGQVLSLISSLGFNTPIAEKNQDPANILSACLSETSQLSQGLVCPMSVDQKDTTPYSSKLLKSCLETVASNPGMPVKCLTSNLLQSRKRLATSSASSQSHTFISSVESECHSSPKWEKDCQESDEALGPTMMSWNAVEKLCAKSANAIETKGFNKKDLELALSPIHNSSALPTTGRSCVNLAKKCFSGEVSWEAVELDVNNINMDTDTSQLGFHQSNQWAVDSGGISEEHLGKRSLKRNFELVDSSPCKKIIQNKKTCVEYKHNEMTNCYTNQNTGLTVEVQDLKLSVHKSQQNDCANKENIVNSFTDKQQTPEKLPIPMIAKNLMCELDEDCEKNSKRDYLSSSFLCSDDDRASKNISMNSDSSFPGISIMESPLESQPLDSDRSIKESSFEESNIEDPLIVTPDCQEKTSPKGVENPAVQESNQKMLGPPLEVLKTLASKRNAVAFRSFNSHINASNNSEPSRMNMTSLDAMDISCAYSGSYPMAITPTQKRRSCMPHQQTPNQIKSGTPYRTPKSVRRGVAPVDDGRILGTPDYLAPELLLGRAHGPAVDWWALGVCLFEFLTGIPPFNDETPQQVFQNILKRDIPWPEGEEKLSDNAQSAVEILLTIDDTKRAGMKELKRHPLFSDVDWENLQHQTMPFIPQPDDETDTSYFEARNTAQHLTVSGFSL
As to the kind of experiment: Selectivity interaction (Kinase panel (KiNativ target engagement assay in Jurkat cells)) EUB0001635a MASTL. In kind it is cell-based. The note with it: at 1 µM.

% of control, dTM and % of engagement data for six molecules are collected here from ChEMBL document CHEMBL5465560, “Selectivity Literature for EUbOPEN Chemogenomic Library” (2024).

Chain of Proto-oncogene tyrosine-protein kinase Src (P12931 2-536 limits assumed): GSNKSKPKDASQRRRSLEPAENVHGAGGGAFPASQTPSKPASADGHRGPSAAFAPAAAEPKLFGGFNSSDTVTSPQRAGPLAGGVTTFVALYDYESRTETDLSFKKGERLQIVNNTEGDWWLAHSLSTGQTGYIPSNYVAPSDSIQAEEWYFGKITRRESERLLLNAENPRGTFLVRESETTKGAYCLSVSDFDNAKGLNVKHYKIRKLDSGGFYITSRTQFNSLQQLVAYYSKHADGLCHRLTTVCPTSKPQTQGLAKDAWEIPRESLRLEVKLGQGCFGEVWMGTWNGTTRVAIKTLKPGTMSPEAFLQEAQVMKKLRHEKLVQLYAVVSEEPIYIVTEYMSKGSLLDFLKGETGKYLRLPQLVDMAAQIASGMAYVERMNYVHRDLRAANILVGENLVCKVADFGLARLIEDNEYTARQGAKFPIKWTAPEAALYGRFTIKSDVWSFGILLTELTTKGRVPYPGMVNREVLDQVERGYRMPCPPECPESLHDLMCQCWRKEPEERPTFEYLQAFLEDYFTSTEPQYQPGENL

Molecule `Cc1cc(F)c(C(=O)Nc2cccc(-c3nncn3C(C)C)n2)cc1-n1cnc(C2CC2)c1` gave a % of control in test [1] of 91%.

With `Cc1cc([C@@H](C)Nc2ccccc2C(=O)O)c2nc(N3CCOCC3)cc(=O)n2c1` [AZD-6482], in test [2], the % of control turned out to be 100%.

In the case of `COc1cc(Nc2nc(C)cc(-c3cnn4nc(OC)ccc34)n2)cc(C(F)(F)F)c1`, the % of control in test [3] stood at 100%; in test [4], 88%.

In turn, `Cc1cc(CN)cc(C)c1-c1ncn(C)c1-c1cncn1C` gave a dTM in test [5] of -0.53 K.

In test [6], `CCC(=O)N1CCN(c2ccc(-n3c(=O)ccc4cnc5ccc(-c6cnc7ccccc7c6)cc5c43)cc2C(F)(F)F)CC1` had a % of control of 100%.

For `C=CC(=O)Nc1ccc(C(=O)Nc2[nH]nc3c2CN(C(=O)N[C@H](CN(C)C)c2ccccc2)C3(C)C)cc1`, the results for the % of engagement in test [7] and in test [8] were -4.8% and 6.7%, respectively.
